One experiment has as its target T1, Cytochrome P450 1A2 (Homo sapiens, UniProt P05177).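 Note: PubChem cytochrome P450 panel assay, CYP1A2 panel member.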
T1 sequence (P05177 whole entry): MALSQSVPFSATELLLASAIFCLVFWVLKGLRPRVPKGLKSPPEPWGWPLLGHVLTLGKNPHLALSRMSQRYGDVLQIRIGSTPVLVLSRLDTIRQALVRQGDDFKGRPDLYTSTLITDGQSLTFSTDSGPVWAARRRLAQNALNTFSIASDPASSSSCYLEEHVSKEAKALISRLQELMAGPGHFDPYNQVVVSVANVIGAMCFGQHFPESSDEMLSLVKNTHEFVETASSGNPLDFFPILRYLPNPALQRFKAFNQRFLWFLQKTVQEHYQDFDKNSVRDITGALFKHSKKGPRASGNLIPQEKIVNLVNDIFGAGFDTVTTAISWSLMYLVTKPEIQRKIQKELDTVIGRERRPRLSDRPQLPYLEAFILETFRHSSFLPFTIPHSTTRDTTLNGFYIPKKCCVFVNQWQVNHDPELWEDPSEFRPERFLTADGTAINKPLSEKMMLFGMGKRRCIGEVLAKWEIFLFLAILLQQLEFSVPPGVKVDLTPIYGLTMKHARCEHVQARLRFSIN

Experiment [1] is described as follows: fluconazole-exposed Candida albicans growth modulators – fluorescence, retest, confirmation (AID 2467). It counts as functional, cell-based.
The nature of experiment [2]: NIH-3T3 fibroblast cytotoxicity, dose response, cytotoxicity control, cell-based, fluorescence, Alamar Blue, secondary assay (AID 2327).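 Note: NIH-3T3 mouse fibroblasts cultured with fluconazole at 8 µg/mL.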 It counts as functional. (The colour change of resazurin is a common sign of viable cells or microbes.)
The target of another experiment is Cytochrome P450 3A4 (Homo sapiens, UniProt P08684).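 Note: CYP3A4 tested as one member of a cytochrome P450 panel screen.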
The target of experiment [3] is T2, Corticotropin-releasing factor receptor 2/Corticotropin-releasing factor-binding protein (Homo sapiens, UniProt P24387+Q13324).
T2 sequence (Q13324 whole entry): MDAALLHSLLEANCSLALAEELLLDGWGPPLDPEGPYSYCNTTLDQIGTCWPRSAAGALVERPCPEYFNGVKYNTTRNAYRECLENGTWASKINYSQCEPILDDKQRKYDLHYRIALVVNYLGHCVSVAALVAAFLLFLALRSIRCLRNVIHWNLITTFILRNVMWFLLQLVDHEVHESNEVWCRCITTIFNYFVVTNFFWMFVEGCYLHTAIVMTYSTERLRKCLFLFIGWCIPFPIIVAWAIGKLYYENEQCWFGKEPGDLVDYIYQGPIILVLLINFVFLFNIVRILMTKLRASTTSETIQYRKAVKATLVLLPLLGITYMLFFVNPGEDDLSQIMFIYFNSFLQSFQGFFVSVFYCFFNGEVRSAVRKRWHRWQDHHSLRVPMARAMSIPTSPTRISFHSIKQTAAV
T2 sequence (P24387 whole entry): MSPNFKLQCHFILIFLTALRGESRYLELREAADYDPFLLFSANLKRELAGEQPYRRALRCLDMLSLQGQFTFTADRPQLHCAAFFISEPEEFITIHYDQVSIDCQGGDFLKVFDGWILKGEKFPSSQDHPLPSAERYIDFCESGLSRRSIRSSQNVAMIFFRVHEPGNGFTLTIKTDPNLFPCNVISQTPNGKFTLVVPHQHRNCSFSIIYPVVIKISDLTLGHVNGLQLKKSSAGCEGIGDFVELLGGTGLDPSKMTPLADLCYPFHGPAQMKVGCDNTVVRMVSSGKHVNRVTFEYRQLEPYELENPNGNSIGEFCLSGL
Put plainly: activators of CRF receptor 2 with binding protein – uHTS hits, confirmation (AID 602473). It counts as functional. Particulars: read-out: EC50_Mean.

The target of experiment [4] is T2, Corticotropin-releasing factor receptor 2/Corticotropin-releasing factor-binding protein. Put plainly: Dose Response confirmation of uHTS hits for small molecule antagonists of the CRF-binding protein and CRF-R2 receptor complex. Particulars: read-out: IC50_Mean. The class given is functional.
For another experiment, the system named is Streptococcus. Put plainly: GAS UMAA2166 growth inhibition – luminescence, BacTiterGlo, counter-screen for streptokinase expression inhibitor project, dose response (AID 1915).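 Note: potency for reduction of bacterial viability or growth.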 The class given is functional, organism-based.
Experiment [5] has as its system Streptococcus sp. 'group A'. Put plainly: Streptococcus pyogenes SK(-)GAS viability under kanamycin – luminescence, BacTiterGlo, confirmation, counter-screen for streptokinase expression inhibitor project, dose response (AID 1900). It counts as functional, organism-based.

Molecules are shown by their SMILES. Active and inactive are the calls of the source. Cut-off read from the data, not from the text of the source, for most assays here: actives have a measured EC50 and inactives only a lower limit. Bounds are passed on as bounds.

Sequence of Cytochrome P450 3A4 (P08684 whole entry): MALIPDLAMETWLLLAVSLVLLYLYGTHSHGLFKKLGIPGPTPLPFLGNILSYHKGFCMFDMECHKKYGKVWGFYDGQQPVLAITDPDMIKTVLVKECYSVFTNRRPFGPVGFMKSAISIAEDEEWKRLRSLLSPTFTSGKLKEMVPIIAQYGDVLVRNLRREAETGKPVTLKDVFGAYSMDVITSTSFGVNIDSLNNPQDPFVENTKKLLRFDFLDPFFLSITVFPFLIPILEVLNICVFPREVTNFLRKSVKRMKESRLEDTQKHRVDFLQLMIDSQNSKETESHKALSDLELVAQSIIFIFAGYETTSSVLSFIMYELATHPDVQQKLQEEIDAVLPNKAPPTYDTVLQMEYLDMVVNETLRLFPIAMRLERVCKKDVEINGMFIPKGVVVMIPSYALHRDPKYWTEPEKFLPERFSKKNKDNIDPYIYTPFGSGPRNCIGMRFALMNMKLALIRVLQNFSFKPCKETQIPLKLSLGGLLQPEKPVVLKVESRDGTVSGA

In general, AC50 refers to the concentration at which the activity in the assay is half-maximal. With `Cn1c(=O)c(-c2cc(F)cc(F)c2)nc2cnc(N3CCOCC3)nc21`, the AC50 on Cytochrome P450 1A2 is 5.01 µM (inconclusive).
Still for that read-out and setting: in the case of `O=C(NCc1ccccc1)C12CN(Cc3ccccc3)CC1C(c1cccc([N+](=O)[O-])c1)=NO2` (stereo not given) it was 15.8 µM (inconclusive).
Take `O=C(CSCc1cccc(CSCC(=O)Nc2ccccc2)n1)Nc1ccccc1`: the results for the EC50 in experiment [1] and in experiment [2] were > 38 µM (not active) and > 150 µM (inactive), respectively.
Regarding `O=C(CSc1nc2ccccc2c(=O)n1Cc1ccccc1)NCc1ccco1`, the concentration at half-maximal activity (AC50) is 39.8 µM (inconclusive) on Cytochrome P450 3A4 and 1.41 µM (inconclusive) at Cytochrome P450 1A2.
For the compound `CC(C)(CNC(=O)c1ccc(Br)o1)CNC(=O)c1ccc(Br)o1`, the EC50 in experiment [3] was > 53 µM (inactive). The IC50 in experiment [4] is > 47.1 µM (inactive).
In the case of `CCOc1ccccc1NC(=O)CNC(=O)Cc1ccccc1`, the EC50 in experiment [3] is > 53 µM (inactive). For the same compound, in experiment [4], the IC50 was > 47.1 µM (inactive).
On the same counts, the results for `Cc1cc(S(=O)(=O)NC2CCCCC2)ccc1OCC(=O)NCC1CCCO1` (stereo not given) are > 53 µM (inactive) and > 47.1 µM (inactive).
For the compound `COC[C@H]1OC(=O)c2coc3c2[C@@]1(C)C1=C(C3=O)[C@H]2CCC(=O)[C@@]2(C)C[C@H]1OC(C)=O`, the half-maximal activity concentration (AC50) at Cytochrome P450 3A4 was 7.94 µM (inconclusive); on Cytochrome P450 1A2 it was 31.6 µM (inconclusive).
With `COc1ccc(/C=C/c2nc(O)cc(-c3ccccc3)n2)cc1`, the EC50 in experiment [3] is > 53 µM (inactive). Also, the IC50 in experiment [4] was > 47.1 µM (inactive).
On to `NS(=O)(=O)c1cccc(NC(S)=NCc2ccc3c(c2)OCO3)c1`, for which the EC50 is > 38 µM (not active) in experiment [1] and > 160 µM (inactive) in experiment [2].
On to `CC(C)(C)c1ccc(OCC(=O)NNC(=S)NC(=O)c2ccco2)c(Br)c1`, for which the EC50 is 0.1 µM (active) in the experiment with Streptococcus and < 0.06 µM (active) in experiment [5].
Take `CCOC(=O)N1CCN(S(=O)(=O)c2ccc(C)c(C)c2C)CC1`: in experiment [3], the EC50 is > 53 µM (inactive). The IC50 in experiment [4] was > 47.1 µM (inactive).
Consider `Cc1ccc(NC(=O)NNC(=O)c2cc3ccccc3cc2O)c(C)c1`, for which, in experiment [2], the EC50 was > 150 µM (inconclusive).
`COc1cc(SC)ccc1C(=O)OCC(=O)NC1CC1`: the EC50 in experiment [1] was > 38 µM (not active); in experiment [2], > 150 µM (inactive).
`Cc1nc2cnc(Oc3ccccc3)nc2n(CCc2ccccc2)c1=O`: the AC50 at Cytochrome P450 3A4 is 20 µM (inconclusive); at Cytochrome P450 1A2 it was 3.16 µM (inconclusive).
As to `Cc1ccc(C2=Nc3ccccc3S[C@@H](c3cccc([N+](=O)[O-])c3)C2)cc1`, at Cytochrome P450 1A2, the half-maximal activity concentration (AC50) is 2 µM (inconclusive).
For `COc1cccc(OCc2nc3ccccc3c(=O)n2N)c1`, the EC50 in experiment [1] was 10.1 µM (active); in experiment [2] it was > 150 µM (inconclusive).
In the case of `COCCCn1c(SCC(=O)Nc2ccccc2F)nnc1-c1ccoc1C`, the EC50 in experiment [3] was > 53 µM (inactive). Moreover, the IC50 in experiment [4] is > 47.1 µM (inactive).
With `CCOC(=O)c1ccc(NC(=O)c2cccc3c2C(=O)N(CC2CCCO2)C3)cc1` (stereo not given), the EC50 in experiment [3] is > 53 µM (inactive). For the same compound, the IC50 in experiment [4] was > 47.1 µM (inactive).
As to `Nc1ccc2nc(SCc3ccc([N+](=O)[O-])cc3)sc2c1`, the EC50 in experiment [1] is > 38 µM (not active); in experiment [2] it was > 150 µM (inactive).
Regarding `CCN1CCN(CC(=O)N2N=CCC2c2ccccc2)CC1` (stereo not given), the EC50 in experiment [3] is > 53 µM (inactive). For the same compound, the IC50 in experiment [4] is > 47.1 µM (inactive).
Take `O=C(CC1C(=O)NCCN1C(=O)Nc1ccccc1)Nc1ccc2c(c1)OCO2` (stereo not given): in experiment [3], the EC50 was > 53 µM (inactive). Moreover, the IC50 in experiment [4] is > 47.1 µM (inactive).
On to `Cc1noc(C)c1C(=O)N1CCC2(CCN(C(=O)NC(C)C)CC2)CC1`, for which the concentration at half-maximal activity (AC50) at Cytochrome P450 1A2 was 5.01 µM (inconclusive).
Take `CCOC(=O)c1ccccc1OCc1cc(/C=N/n2cnnc2)ccc1OC`: the EC50 was > 38 µM (not active) in experiment [1] and > 150 µM (inactive) in experiment [2]. The AC50 at Cytochrome P450 1A2 is 1.26 µM (inconclusive).
For the compound `c1ccc(C2CC2)c(OCC2=NCCN2)c1` [CIRAZOLINE], the concentration at half-maximal activity (AC50) at Cytochrome P450 1A2 is 15.8 µM (inconclusive).

The record behind these values is ChEMBL document CHEMBL1201862, “PubChem BioAssay data set” (2004).
